Consider 8 molecules from paper PMC9830933 (European Journal of Medicinal Chemistry, 2023).

The test system of one data set is FCoV. To be noted: intraperitoneal injection, FCoV-afflicted cats; cited from earlier work.
Data set [1] deals with MHV-A59. As to the kind of experiment: Mouse MHV efficacy study. Type of data set: in vivo, BALB/c mice. To be noted: for viral titers (MHV-A59 RNA copies) in the liver (in words): mouse, in vivo.
A further data set is described as follows: Aqueous solubility. Type of data set: physicochemical.
The subject of data set [2] is MHV-A59. Put plainly: In vitro anti-MHV-A59 activity assay in L929 cells. Type of data set: cell-based, murine coronavirus mouse hepatitis virus A-59. To be noted: for potency relative to GS-441524 (MHV-A59 EC50), fold more potent: vs GS-441524 EC50 = 10.01 μM; for effect on cellular replication of MHV-A59 (in words): up to 200 μM.
[3] abbreviates: ATV041 10, 50, 200 mg/kg oral QD, 3 dpi.

The structures appear in SMILES notation.

On to `N#C[C@@]1(c2ccc3c(N)ncnn23)O[C@H](CO)[C@@H](O)[C@H]1O` [GS-441524, 1′-CN-4-aza-7,9-dideazaadenosine C-nucleoside, reference compound], for which the cure rate entry in the data set on FCoV is reported as “up to 96%”. Further, the “viral titer / viral replication in the lungs (in words)” value with MHV-A59 [1] (100 mg/kg GS-441524 (B1) or 200 mg/kg ATV041 (C3), same molar concentration, oral QD, 3 dpi) is “about one order of magnitude”. The “lung histopathology (H&E) (in words)” value in the data set with MHV-A59 [1] (3 dpi) was “did not demonstrate protect effects”. Moreover, the “viral titers (MHV-A59 RNA copies) in the liver (in words)” value in the data set with MHV-A59 [1] is on record as “below the detection limit”.

As for `COc1ccc2cc([C@H](C)C(=O)OC[C@H]3O[C@@](C#N)(c4ccc5c(N)ncnn45)[C@H](O)[C@@H]3O)ccc2c1` [ATV039, ((2R,3S,4R,5R)-5-(4-aminopyrrolo[2,1-f][1,2,4]triazin-7-yl)-5-cyano-3,4-dihydroxytetrahydrofuran-2-yl)methyl (S)-2-(6-methoxynaphthalen-2-yl)propanoate], the “aqueous solubility (in words)” value in “Aqueous solubility” is listed as “slightly better solubility”.

`CC(C(=O)OC[C@H]1O[C@@](C#N)(c2ccc3c(N)ncnn23)[C@H](O)[C@@H]1O)c1cccc(Oc2ccccc2)c1` (stereo partly drawn) [ATV038, ((2R,3S,4R,5R)-5-(4-aminopyrrolo[2,1-f][1,2,4]triazin-7-yl)-5-cyano-3,4-dihydroxytetrahydrofuran-2-yl)methyl 2-(3-phenoxyphenyl)propanoate]: the “aqueous solubility (in words)” value in “Aqueous solubility” is “slightly better solubility”. Further, the “potency relative to GS-441524 (MHV-A59 EC50), fold more potent” value in the data set on MHV-A59 [2] is reported as “about 8 fold”.

Turning to `CC(C(=O)OC[C@H]1O[C@@](C#N)(c2ccc3c(N)ncnn23)[C@H](O)[C@@H]1O)c1cccc(C(=O)c2ccccc2)c1` (stereo partly drawn) [ATV040, ((2R,3S,4R,5R)-5-(4-aminopyrrolo[2,1-f][1,2,4]triazin-7-yl)-5-cyano-3,4-dihydroxytetrahydrofuran-2-yl)methyl 2-(3-benzoylphenyl)propanoate], in “Aqueous solubility”, the “aqueous solubility (in words)” value is reported as “significantly improved the solubility”.

With `N#C[C@@]1(c2ccc3c(N)ncnn23)O[C@H](COC(=O)Cc2ccccc2Nc2c(Cl)cccc2Cl)[C@@H](O)[C@H]1O` [ATV042, ((2R,3S,4R,5R)-5-(4-aminopyrrolo[2,1-f][1,2,4]triazin-7-yl)-5-cyano-3,4-dihydroxytetrahydrofuran-2-yl)methyl 2-(2-((2,6-dichlorophenyl)amino)phenyl)acetate], in “Aqueous solubility”, the “aqueous solubility (in words)” value is listed as “hardly soluble”.

`CC(C)Cc1ccc(C(C)C(=O)O)cc1` (centres unmarked) [Ibuprofen, reference compound]: the “effect on cellular replication of MHV-A59 (in words)” value in the data set on MHV-A59 [2] (Fig. S1) is reported as “did not affect”; in the data set with MHV-A59 [2] (Fig. S1, listed as ibuprofen), “did not inhibit”. The “antiviral effect in lung and liver (in words)” value with MHV-A59 [1] (ibuprofen 70 mg/kg oral QD dosed alone, 3 dpi) is listed as “did not show an antiviral effect”.

As for `CC(C)Cc1ccc(C(C)C(=O)OC[C@H]2O[C@@](C#N)(c3ccc4c(N)ncnn34)[C@H](O)[C@@H]2O)cc1` (stereo partly drawn) [ATV041, ((2R,3S,4R,5R)-5-(4-aminopyrrolo[2,1-f][1,2,4]triazin-7-yl)-5-cyano-3,4-dihydroxytetrahydrofuran-2-yl)methyl 2-(4-isobutylphenyl)propanoate], the “aqueous solubility (in words)” value in “Aqueous solubility” is recorded as “slightly better solubility”. Besides, the “potency relative to GS-441524 (MHV-A59 EC50), fold more potent” value with MHV-A59 [2] is reported as “about 8 fold”. In the data set on MHV-A59 [1] (10 mg/kg oral QD, 23-day observation), this molecule gave a survival rate of 100%. For the same molecule, in the data set with MHV-A59 [1] (200 mg/kg oral QD, 3 dpi), the “pro-inflammatory factors in the lungs (in words)” value was “considerably reduced to a level similar to the mock-infected mice”. Moreover, in the data set on MHV-A59 [1] (3 dpi), the “liver histopathology (H&E) (in words)” value is reported as “obvious remission effects” and the “lung histopathology (H&E) (in words)” value is reported as “alleviated symptoms”. Besides, in the data set with MHV-A59 [1] (setting [3]), the “dose dependence of inhibition of viral replication in the liver (in words)” value is “dose-dependently inhibited” and the “dose dependence of inhibition of viral replication in the lungs (in words)” value is listed as “dose-dependent inhibition”. The “viral titers (MHV-A59 RNA copies) in the liver (in words)” value with MHV-A59 [1] was “below the detection limit”. The “plasma ALT and AST (in words)” value with MHV-A59 [1] (serum chemical analysis, 3 dpi) is given as “significantly reduced”.

With `COc1ccc2c(c1)c(CC(=O)OC[C@H]1O[C@@](C#N)(c3ccc4c(N)ncnn34)[C@H](O)[C@@H]1O)c(C)n2C(=O)c1ccc(Cl)cc1` [ATV043, ((2R,3S,4R,5R)-5-(4-aminopyrrolo[2,1-f][1,2,4]triazin-7-yl)-5-cyano-3,4-dihydroxytetrahydrofuran-2-yl)methyl 2-(1-(4-chlorobenzoyl)-5-methoxy-2-methyl-1H-indol-3-yl)acetate], the “aqueous solubility (in words)” value in “Aqueous solubility” is reported as “hardly soluble”.
